Experimental data: patent publication US20150133373A1, “TRANSMUCOSAL DELIVERY OF ENGINEERED POLYPEPTIDES” (priority 2012, published 2015)

How the values were obtained:
NIH/Swiss mice = test: OGTT DOA (oral glucose tolerance test for duration of action) in NIH/Swiss mice; assay type: in vivo, mouse; details: Table 6; 25 nmol/kg IP at t=−1 day; blood glucose at 30 min after glucose gavage ([…]); 4 hr fasted NIH/Swiss female mice
Sprague Dawley rats = test: IVGTT DOA in HSD fed anesthetized rats 5 days post dose; assay type: in vivo, rat; details: 240 nmol/kg
Protocol: In vivo assays for activity and duration of action and pharmacokinetics can be done using known methods. For example, duration can be performed using an oral glucose tolerance test (OGTT) in which the drug is administered to the subject at a desired time point before the glucose is administered orally (to measure drug duration of action; OGTT DOA) and glucose blood levels are measured (e.g. readily done in mice). Activity and duration can also be measured using an intravenous glucose tolerance test (IVGTT) in which the drug is administered to the subject at a desired time point before the glucose is administered IV (IVGTT DOA) and blood glucose levels are measured (e.g. can readily be done in rats). Preferred engineered compounds have a desired effect on blood glucose of at least 24 hours duration after a single dose of drug, preferably at least 3 days, at least 4 days, at least 5 days, at least 6 days, and at least 1 week after the single dose of drug is given.
The time course of plasma glucose after IVGTT is depicted in FIG. 4A. Integrated (AUC0-60) glucose levels are depicted in the histogram of FIG. 4B. The time course of the change in insulin levels in the test subjects was depicted in FIG. 4C. The integrated insulin levels (AUC0-30) are depicted in FIG. 4D. The time course of body weight change (% change from baseline) is depicted for the test subjects in FIG. 4E. […]

ob/ob mice = test: Body weight, glucose and HbA1c in ob/ob mice after a single sc dose; assay type: in vivo, mouse; details: single sc injection, non-fasted male ob/ob mice; Cmpd 15 at 250 nmol/kg
Source text: Changes in glucose (% pre-treatment) and in HbA1c (% pre-treatment) are depicted in FIGS. 5B-5C. Points represent mean±s.d. (standard deviation). […] Unless indicated otherwise, blood glucose measures described herein employed a OneTouch® Ultra® device (LifeScan, Inc. Miliptas, Calif.).

[1] = Stability in human plasma; assay type: in vitro ADME; details: 10 μg/ml in human plasma, 37 degrees C, 5 hours; normalized to a standard (100%)
C57BL6 female mice = test: Kidney vacuolization (cytoplasmic vacuolation of renal cortical tubular epithelial cells); assay type: in vivo, mouse; details: Example 14; sc injection on days 0-6, kidneys on day 7
Protocol: (§1) With some drugs, such as some pegylated proteins, undesirable vacuoles can form in cytoplasm of epithelial cells lining the proximal convoluted tubules, which is an undesirable toxicity measure. […] C57BL6 female mice (n=2 cages, 3 mice/cage) were weighed daily 3 hours prior to lights out Immediately after weighing, on days 0-6 mice were injected subcutaneously with test compound. Mice were sacrificed on day 7 and kidneys submitted for histopathology. […] A positive control compound known to cause vacuole formation was scored as 3. The ABD polypeptide itself scored 0.
as §1, with “3.” for “3. The ABD polypeptide itself scored 0.”

diabetic ob/ob mice = test: Chronic (28 days) treatment of diabetic ob/ob mice: glucose, HbA1c, body weight; assay type: in vivo, mouse
Protocol: The time course of the effect of the test compound on body weight, glucose lowering and HbA1c lowering in ob/ob mice was investigated post dose, with values at 4 weeks presented in FIGS. 11A, 11B, 11C and 11D. […] Points represent mean±s.d. (standard deviation). Each test compound was injected IP on day=0 immediately following baseline sample collection in non-fasted male ob/ob mice. […] Unless indicated otherwise, blood glucose measures described herein employed a OneTouch® Ultra® device (LifeScan, Inc. Miliptas, Calif.).

[2] = PK profile, food intake and body weight after a single subcutaneous dose in normal HSD rats; assay type: in vivo, rat; details: 25 nmol/kg subcutaneous
Protocol: Blood was collected via tail bleed at t=1 hour, 3 hours, 6 hours, 24 hours, 48 hours, 72 hours, 96 hours and 168 hours from fed HSD male rats. Food and body weights were measured daily. […] Points represent mean±sd.
Pharmacokinetic profile and biological activity of an exemplary engineered polypeptide subcutaneously dosed in normal Harlan Sprague-Dawley (HSD) rats is presented. […] Blood was collected via tail bleed at t=1 hour, 3 hours, 6 hours, 24 hours, 48 hours, 72 hours, 96 hours and 168 hours from fed HSD male rats. Food and body weights were measured daily. […] Points represent mean±sd. In the figures, vehicle is solid square, Cmpd 2-11 is open inverted triangle and Cmpd 2-9 is closed triangle. The plasma maximal concentration in FIG. 18C is equivalent to about 25,000 picomolar.

db/db mice = test: Oral (gavage) delivery, blood glucose lowering in diabetic db/db mice; assay type: in vivo, mouse; details: 240 nmol/kg peroral by gavage in PBS/propylene glycol (50:50); 2-hour fasted db/db mice; to 120 minutes
[3] = 25 and 250 nmol/kg IP twice each week for 28 days

HGEGTFTSDLSKQLEEEAVRLFIEWLKQGGPSKEIISTGGGGSASLAEAKVLANRELDKYGVSDFYKRLINKAKTVEGVEALKLHILAALP [Cmpd 15]
% Glucose Lowering Compared to Vehicle (NIH/Swiss mice): −21% | time after administration at which drug activity is present (IVGTT DOA) (Sprague Dawley rats): at least 5 days | body weight in ob/ob mice (in words) (ob/ob mice): significant body weight loss | Percent Stable in Human Plasma [1]: 96.0% | Severity score for cytoplasmic vacuolation of renal cortical tubular epithelial cells (C57BL6 female mice): 0 | glycemic and body weight loss effects compared to the maximally efficacious dose of exendin-4 (in words) (diabetic ob/ob mice; 25 nmol/kg biw IP vs exendin-4 ~[…] CSI, 28 days): exceeded | effect compared to the maximally efficacious dose of exendin-4 (in words) (diabetic ob/ob mice; 250 nmol/kg biw IP, 28 days): significantly greater than the maximally efficacious dose of exendin-4 | HbA1c lowering (in words) (diabetic ob/ob mice; [3]): significant HbA1c lowering | body weight loss (in words) (diabetic ob/ob mice; [3]): significant body weight loss | HbA1c lowering and body weight loss compared to liraglutide (in words) (diabetic ob/ob mice; equimolar dosing to liraglutide, data not shown): more effective than liraglutide | glucose lowering upon chronic exposure compared to liraglutide (in words) (diabetic ob/ob mice; equimolar dosing, twice weekly (BIW), ob/ob mice): superior to liraglutide | apparent half-life [2]: 54 h | activity after oral dosing (blood glucose, in words) (db/db mice): active when dosed orally
